This passage reports TGI and GI50 results from PubChem BioAssay (NCI).

Values joined by “and” are separate entries in the source; they are usually repeats but may differ in a detail not shown here. Identical values can stand only once.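 96-well plates; 48 h exposure; 5 concentrations. Endpoints by linear interpolation between flanking doses. Not reached: highest tested concentration assigned. GI50 marks 50% less growth. At the TGI there is no net growth.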 Where only a bound is given, the exact number is not on record here.

Test systems include A498 renal; K-562 leukemia; SW-620 colon; DU-145 prostate; M14 melanoma; MDA-MB-435; KM12 colon; A549 NSCLC; MCF7 breast; SF-268 CNS.
Common to all, as to assay: inhibition of tumour cell growth, NCI panel, 48 h

As for `CCc1ccccc1N1CCN(C(=O)c2cc(OC)c(OC)c(OC)c2)CC1`, the TGI was 985 nM with A498 renal; 39400 nM with K-562 leukemia; greater than 100000 nM in the test on SW-620 colon; 715 nM in the test with DU-145 prostate; 2600 nM with M14 melanoma; less than 11.3 nM with MDA-MB-435. Further, the TGI is 2640 nM in the test with KM12 colon, 72400 nM with A549 NSCLC, 35000 nM with MCF7 breast and greater than 100000 nM in the test on SF-268 CNS.

Regarding `O=C1/C(=C/c2ccccc2F)CNC/C1=C\c1ccccc1F`, the GI50 is 194 nM and 1520 nM in the test with A498 renal; 270 nM and 341 nM in the test with K-562 leukemia; 236 nM and 245 nM in the test on SW-620 colon; 642 nM and 710 nM with DU-145 prostate; 1160 nM and 1200 nM in the test on M14 melanoma; 482 nM and 472 nM with MDA-MB-435. The GI50 in the test on KM12 colon is 189 nM and 197 nM; in the test on A549 NSCLC, 1810 nM and 1270 nM; in the test with MCF7 breast it was 305 nM; in the test on SF-268 CNS, 620 nM and 309 nM. Further, the TGI in the test with A498 renal is 978 nM and 2980 nM; with K-562 leukemia, 2270 nM and 2630 nM; in the test on SW-620 colon it was 3490 nM and 647 nM; in the test on DU-145 prostate, 2050 nM and 2010 nM; in the test with M14 melanoma it was 3730 nM and 2840 nM; in the test with MDA-MB-435, 1460 nM and 1920 nM. The TGI is 519 nM and 390 nM in the test with KM12 colon; 9350 nM and 5590 nM with A549 NSCLC; 1390 nM with MCF7 breast; 5370 nM and 1210 nM in the test on SF-268 CNS.

For `O=C1c2ccc3c4c5ccc(c24)C(=O)N1CCCOCCCCOCCCNCc1ccc(cc1)CNCCCOCCCCOCCCN(C3=O)C5=O`, the GI50 in the test on A498 renal was 7890 nM; with K-562 leukemia, 987 nM; in the test on SW-620 colon, 964 nM; in the test with DU-145 prostate it was 886 nM; in the test on M14 melanoma, 923 nM; in the test on MDA-MB-435 it was 873 nM. Further, the GI50 is 896 nM with KM12 colon, 1010 nM in the test on A549 NSCLC, 686 nM with MCF7 breast and 972 nM with SF-268 CNS. Moreover, the TGI in the test with A498 renal came out at 15000 nM; in the test on K-562 leukemia, 2400 nM; in the test on SW-620 colon it was 2060 nM; in the test on DU-145 prostate, 1730 nM; in the test with M14 melanoma it was 1750 nM; with MDA-MB-435, 1590 nM. For the same compound, the TGI with KM12 colon was 2060 nM; with A549 NSCLC, 2070 nM; in the test with MCF7 breast it was 1600 nM; with SF-268 CNS, 2430 nM.

`CN(c1ccc(NC(=O)Nc2ccc(OC(F)(F)F)cc2)cc1)c1ccnc(Nc2cccc(S(N)(=O)=O)c2)n1`: the GI50 in the test with A498 renal was 1150 nM; in the test on K-562 leukemia, 87.4 nM; with SW-620 colon it was 2930 nM; in the test with DU-145 prostate it was 3260 nM; with M14 melanoma it was 3390 nM; with MDA-MB-435 it was 3150 nM. Moreover, the GI50 in the test on KM12 colon is 15.7 nM; in the test on A549 NSCLC it was 2680 nM; with MCF7 breast it was 1060 nM; in the test on SF-268 CNS, 2340 nM. Moreover, the TGI with A498 renal worked out at 3370 nM; in the test with K-562 leukemia, 4310 nM; with SW-620 colon it was 6620 nM; in the test with DU-145 prostate, 6460 nM; in the test on M14 melanoma, 8030 nM; in the test with MDA-MB-435 it was 6680 nM. In addition, the TGI with KM12 colon stood at 3990 nM; with A549 NSCLC, 9830 nM; with MCF7 breast it was 5560 nM; in the test on SF-268 CNS, 6740 nM.

On to `C=C(C)C(=O)OC1CC2=CC(CC3(C)OC3C3OC(=O)C(=C)C13)OC2=O` (centres undefined), for which the TGI with A498 renal came out at 30200 nM; with K-562 leukemia it was 9800 nM; in the test on SW-620 colon it was 5030 nM; in the test with DU-145 prostate, 51800 nM; in the test with M14 melanoma, 15400 nM; in the test with MDA-MB-435 it was 30200 nM. The TGI in the test with KM12 colon stood at 32100 nM; in the test on A549 NSCLC, 36500 nM; in the test on MCF7 breast it was 14700 nM; in the test on SF-268 CNS it was 47300 nM. Also, the GI50 in the test on K-562 leukemia was 2620 nM.

Regarding `Cn1c(=O)c(Oc2ccc(F)cc2F)cc2cnc(NC(CO)CO)nc21`, the GI50 in the test with A498 renal, in the test on K-562 leukemia, in the test with SW-620 colon, in the test with DU-145 prostate, with M14 melanoma and with MDA-MB-435 was greater than 25000 nM throughout. Further, the GI50 in the test on KM12 colon, with A549 NSCLC, with MCF7 breast and in the test on SF-268 CNS was greater than 25000 nM in each case. Also, the TGI with A498 renal, in the test with K-562 leukemia, with SW-620 colon, in the test on DU-145 prostate, with M14 melanoma and in the test on MDA-MB-435 was greater than 25000 nM in each case. Besides, the TGI in the test on KM12 colon, in the test on A549 NSCLC, with MCF7 breast and with SF-268 CNS was greater than 25000 nM in each case.

For `O=C1C=C[C@@]23C[C@@H](Nc4c(O)c5c6c(c42)=NCCC=6C=N5)SC3=C1`, the GI50 in the test with A498 renal is 9040 nM; with K-562 leukemia it was 2660 nM; in the test with SW-620 colon, 1680 nM; in the test on DU-145 prostate, 17100 nM; in the test on M14 melanoma, 2160 nM; in the test on A549 NSCLC, 8620 nM. Besides, the GI50 in the test with MCF7 breast is 2000 nM; in the test on SF-268 CNS it was 3040 nM. For the same compound, the TGI in the test on A498 renal is 25300 nM; in the test on K-562 leukemia it was greater than 21900 nM; in the test with SW-620 colon it was 3310 nM; in the test on DU-145 prostate, 30900 nM; in the test with M14 melanoma, 5050 nM; in the test with MDA-MB-435, 2980 nM. Also, the TGI in the test with KM12 colon worked out at 18500 nM; in the test with A549 NSCLC, 24400 nM; with MCF7 breast, 4040 nM; with SF-268 CNS, 10100 nM.
